According to patent US7071178B2, “Use of vitamin D-derivatives in the treatment of osteoporosis and related bone disorders, as well as novel vitamin D3-derivatives” (Leo Pharmaceutical Products, Ltd., priority 2000, dated 2006):

Tested on: OVX rats
Test: OVX rat model on osteoporosis: urine calcium
Format: in vivo
Parameters: key to Effect on urine calcium vs 1,25D3: <: less effect than the reference dose of 1,25D3 (0.25 ug/kg); <=: less or the same effect as the reference dose of 1,25D3 (0.25 ug/kg); =: same effect as the reference dose of 1,25D3 (0.25 ug/kg); =>: same or better effect as the reference dose of 1,25D3 (0.25 ug/kg); >: better effect than the reference dose of 1,25D3 (0.25 ug/kg)
Conditions: oral 28 days
Description: Pharmacological Methods—OVX Rat Model on Osteoporosis
To study bone anabolic properties and the effects of the vitamin D analogues of the present invention in preventing or treating demineralisation of the skeleton in vivo, a 4 weeks OVX rat model was used:
An ovariectomized rat model (OVX model), orally dosed for 28 days is useful for screening of vitamin D analogues. In this model ovariectomy produces alterations in the cancellous network identical to those seen in the human skeleton during ageing and the menopause. Besides this the model and the following analyses can be performed under very standardised conditions. 1α,25(OH)2D3 is used as a reference compound.
Female Sprague Dawley rats weighing approximately 130 g (40–45 days old) were purchased from MB, Ejby, Denmark. The animals were fed a commercial diet and allowed free access to food and drinking water. The animals were split into groups receiving differential treatment.
The animals were anaesthetised and ovariectomized through a dorsal incision.
Treatment of OVX animals was started 2 weeks after ovariectomy.
The animals were dosed orally for 28 days. The oral dosage was by gavage 0.1 ml/100 g bodyweight. The bodyweight of each animal was recorded every day prior to oral dosing. On day 7, 14, 21 and 28 the animals were housed separately for 24 hours in metabolic cages for collection of urine. Urine was frozen at −20° C. for later calcium measurement.
Effect of Compound 145 compared to the reference dose of 1,25(OH)2D3 (1,25D3) (0.25 μg/kg) and compared to the OVX control group (shown in %) are shown in Tables 1 to 4.

- Effect on urine calcium vs 1,25D3 (1 μg/kg, MTR/16): No
- Effect on urine calcium vs Ovx contr (1 μg/kg, MTR/16): −23%
- Effect on urine calcium vs 1,25D3 (10 μg/kg, MTR/16): <<<
- Effect on urine calcium vs Ovx contr (10 μg/kg, MTR/16): 104%
- Effect on urine calcium vs 1,25D3 (10 μg/kg, MTR/23): <<<
- Effect on urine calcium vs Ovx contr (10 μg/kg, MTR/23): 45%
- Effect on urine calcium vs 1,25D3 (25 μg/kg, MTR/27): <<
- Effect on urine calcium vs Ovx contr (25 μg/kg, MTR/27): 155%
- Effect on urine calcium vs 1,25D3 (50 μg/kg, MTR/23): <=
- Effect on urine calcium vs Ovx contr (50 μg/kg, MTR/23): 373%
- Effect on urine calcium vs 1,25D3 (50 μg/kg, MTR/27): =
- Effect on urine calcium vs Ovx contr (50 μg/kg, MTR/27): 750%
- Effect on urine calcium vs 1,25D3 (75 μg/kg, MTR/27): >=
- Effect on urine calcium vs Ovx contr (75 μg/kg, MTR/27): 777%
- Effect on urine calcium vs 1,25D3 (100 μg/kg, MTR/23): <=
- Effect on urine calcium vs Ovx contr (100 μg/kg, MTR/23): 463%
SMILES: C=C1C(=CC=C2CCCC3(C)C2CCC3C(C)CSc2ccc(C(C)(C)O)cc2)CC(O)CC1O [Compound 145, 1(S),3(R)-Dihydroxy-20(R)-(4-((1-hydroxy-1-methyl)ethyl)phenylthiomethyl)-9,10-seco-pregna-5(Z),7(E),10(19)-triene]
